In the supplement of paper PMC8671470:
Structures can show the parent of a compound that is named as a salt.

What follows are molecules tested on BV-173 (assay: cell viability (% survival relative to DMSO control); higher = less cytotoxic). Conditions: drug1 concentration 5000 nM; drug2 concentration 5 nM; 72 h.
Protocol: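 8x8 drug-combination matrices (0–5000 nM; rosiglitazone and lestaurtinib 0–1000 nM) were run in BV-173 cells for 72 h with CellTiter-Glo read-out. Survival is normalised to DMSO and 10 µM bortezomib and clipped at 100%.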

**Q.** For `CCn1c(=Cc2cccc[n+]2CC)sc(=C2Sc3ccccc3N2C)c1=O` [MKT 077] + CN(C)CCNC(=O)c1cccn2c(=O)c3cc4ccccc4cc3nc12 [Bmh-21], which cell viability is on record?
**A.** 93.6%

Same assay, conditions: drug1 concentration 5000 nM; drug2 concentration 10 nM; 72 h

**Q.** For `O=C(O)CC[N+](=O)[O-]` [3-nitropropionic acid] + CCn1c(=Cc2cccc[n+]2CC)sc(=C2Sc3ccccc3N2C)c1=O [MKT 077], which cell viability is on record?
**A.** > 100%

**Q.** With `CCn1c(=Cc2cccc[n+]2CC)sc(=C2Sc3ccccc3N2C)c1=O` [MKT 077] + CN(C)CCNC(=O)c1cccn2c(=O)c3cc4ccccc4cc3nc12 [Bmh-21] as the molecule, how does the cell viability read?
**A.** > 100%

Same assay, conditions: drug1 concentration 5000 nM; drug2 concentration 50 nM; 72 h

**Q.** With `O=C(O)CC[N+](=O)[O-]` [3-nitropropionic acid] + CCn1c(=Cc2cccc[n+]2CC)sc(=C2Sc3ccccc3N2C)c1=O [MKT 077] as the molecule, how does the cell viability read?
**A.** > 100%

**Q.** Which cell viability does the source give for `CCn1c(=Cc2cccc[n+]2CC)sc(=C2Sc3ccccc3N2C)c1=O` [MKT 077] + CN(C)CCNC(=O)c1cccn2c(=O)c3cc4ccccc4cc3nc12 [Bmh-21] here?
**A.** > 100%

Same assay, conditions: drug1 concentration 5000 nM; drug2 concentration 100 nM; 72 h

**Q.** Which cell viability does the source give for `O=C(O)CC[N+](=O)[O-]` [3-nitropropionic acid] + CCn1c(=Cc2cccc[n+]2CC)sc(=C2Sc3ccccc3N2C)c1=O [MKT 077] here?
**A.** 87.9%

**Q.** How did the cell viability turn out when `CCn1c(=Cc2cccc[n+]2CC)sc(=C2Sc3ccccc3N2C)c1=O` [MKT 077] + CN(C)CCNC(=O)c1cccn2c(=O)c3cc4ccccc4cc3nc12 [Bmh-21] was run?
**A.** > 100%

Same assay, conditions: drug1 concentration 5000 nM; drug2 concentration 500 nM; 72 h

**Q.** Which cell viability does the source give for `O=C(O)CC[N+](=O)[O-]` [3-nitropropionic acid] + CCn1c(=Cc2cccc[n+]2CC)sc(=C2Sc3ccccc3N2C)c1=O [MKT 077] here?
**A.** > 100%

**Q.** How did the cell viability turn out when `CCn1c(=Cc2cccc[n+]2CC)sc(=C2Sc3ccccc3N2C)c1=O` [MKT 077] + CN(C)CCNC(=O)c1cccn2c(=O)c3cc4ccccc4cc3nc12 [Bmh-21] was run?
**A.** 49.9%

Same assay, conditions: drug1 concentration 5000 nM; drug2 concentration 1000 nM; 72 h

**Q.** `O=C(O)CC[N+](=O)[O-]` [3-nitropropionic acid] + CCn1c(=Cc2cccc[n+]2CC)sc(=C2Sc3ccccc3N2C)c1=O [MKT 077] was tested. Which cell viability did it give?
**A.** 74.4%

**Q.** How did the cell viability turn out when `CCn1c(=Cc2cccc[n+]2CC)sc(=C2Sc3ccccc3N2C)c1=O` [MKT 077] + CN(C)CCNC(=O)c1cccn2c(=O)c3cc4ccccc4cc3nc12 [Bmh-21] was run?
**A.** 6.83%

Same assay, conditions: drug1 concentration 5000 nM; drug2 concentration 5000 nM; 72 h

**Q.** For `O=C(O)CC[N+](=O)[O-]` [3-nitropropionic acid] + CCn1c(=Cc2cccc[n+]2CC)sc(=C2Sc3ccccc3N2C)c1=O [MKT 077], which cell viability is on record?
**A.** > 100%

**Q.** How did the cell viability turn out when `CCn1c(=Cc2cccc[n+]2CC)sc(=C2Sc3ccccc3N2C)c1=O` [MKT 077] + CN(C)CCNC(=O)c1cccn2c(=O)c3cc4ccccc4cc3nc12 [Bmh-21] was run?
**A.** 6.67%

These molecules were tested on Mono-Mac-6 in the same assay as above. Conditions: drug1 concentration 1 nM; drug2 concentration 5 nM; 72 h.
Protocol: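 8x8 drug-combination matrices (0–5000 nM; rosiglitazone and lestaurtinib 0–1000 nM) were run in Mono-Mac-6 cells for 72 h with CellTiter-Glo read-out. Survival is normalised to DMSO and 10 µM bortezomib and clipped at 100%.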

**Q.** With `CN(CCOc1ccc(Cc2sc(O)nc2O)cc1)c1ccccn1` [Rosiglitazone] + CC(C)(Cc1ccccc1)NCC(O)c1ccc(O)c(NS(C)(=O)=O)c1 [Zinterol hydrochloride] as the molecule, how does the cell viability read?
**A.** 83%

**Q.** Which cell viability does the source give for `CN(CCOc1ccc(Cc2sc(O)nc2O)cc1)c1ccccn1` [Rosiglitazone] + c1cc(-c2cnn3cc(-c4ccc(OCCN5CCCCC5)cc4)cnc23)ccn1 [Dorsomorphin] here?
**A.** > 100%

Same assay, conditions: drug1 concentration 1 nM; drug2 concentration 10 nM; 72 h

**Q.** With `CN(CCOc1ccc(Cc2sc(O)nc2O)cc1)c1ccccn1` [Rosiglitazone] + CC(C)(Cc1ccccc1)NCC(O)c1ccc(O)c(NS(C)(=O)=O)c1 [Zinterol hydrochloride] as the molecule, how does the cell viability read?
**A.** 66.3%

**Q.** How did the cell viability turn out when `CN(CCOc1ccc(Cc2sc(O)nc2O)cc1)c1ccccn1` [Rosiglitazone] + c1cc(-c2cnn3cc(-c4ccc(OCCN5CCCCC5)cc4)cnc23)ccn1 [Dorsomorphin] was run?
**A.** > 100%

Same assay, conditions: drug1 concentration 1 nM; drug2 concentration 50 nM; 72 h

**Q.** With `CN(CCOc1ccc(Cc2sc(O)nc2O)cc1)c1ccccn1` [Rosiglitazone] + CC(C)(Cc1ccccc1)NCC(O)c1ccc(O)c(NS(C)(=O)=O)c1 [Zinterol hydrochloride] as the molecule, how does the cell viability read?
**A.** 86.8%

**Q.** How did the cell viability turn out when `CN(CCOc1ccc(Cc2sc(O)nc2O)cc1)c1ccccn1` [Rosiglitazone] + c1cc(-c2cnn3cc(-c4ccc(OCCN5CCCCC5)cc4)cnc23)ccn1 [Dorsomorphin] was run?
**A.** 87.3%

Same assay, conditions: drug1 concentration 1 nM; drug2 concentration 100 nM; 72 h

**Q.** For `CN(CCOc1ccc(Cc2sc(O)nc2O)cc1)c1ccccn1` [Rosiglitazone] + CC(C)(Cc1ccccc1)NCC(O)c1ccc(O)c(NS(C)(=O)=O)c1 [Zinterol hydrochloride], which cell viability is on record?
**A.** 70.8%

**Q.** For `CN(CCOc1ccc(Cc2sc(O)nc2O)cc1)c1ccccn1` [Rosiglitazone] + c1cc(-c2cnn3cc(-c4ccc(OCCN5CCCCC5)cc4)cnc23)ccn1 [Dorsomorphin], which cell viability is on record?
**A.** 68.8%

Same assay, conditions: drug1 concentration 1 nM; drug2 concentration 500 nM; 72 h

**Q.** For `CN(CCOc1ccc(Cc2sc(O)nc2O)cc1)c1ccccn1` [Rosiglitazone] + CC(C)(Cc1ccccc1)NCC(O)c1ccc(O)c(NS(C)(=O)=O)c1 [Zinterol hydrochloride], which cell viability is on record?
**A.** 74.7%

**Q.** With `CN(CCOc1ccc(Cc2sc(O)nc2O)cc1)c1ccccn1` [Rosiglitazone] + c1cc(-c2cnn3cc(-c4ccc(OCCN5CCCCC5)cc4)cnc23)ccn1 [Dorsomorphin] as the molecule, how does the cell viability read?
**A.** 78.1%

Same assay, conditions: drug1 concentration 1 nM; drug2 concentration 1000 nM; 72 h

**Q.** `CN(CCOc1ccc(Cc2sc(O)nc2O)cc1)c1ccccn1` [Rosiglitazone] + CC(C)(Cc1ccccc1)NCC(O)c1ccc(O)c(NS(C)(=O)=O)c1 [Zinterol hydrochloride] was tested. Which cell viability did it give?
**A.** 76.3%

**Q.** For `CN(CCOc1ccc(Cc2sc(O)nc2O)cc1)c1ccccn1` [Rosiglitazone] + c1cc(-c2cnn3cc(-c4ccc(OCCN5CCCCC5)cc4)cnc23)ccn1 [Dorsomorphin], which cell viability is on record?
**A.** 42.4%

Same assay, conditions: drug1 concentration 1 nM; drug2 concentration 5000 nM; 72 h

**Q.** With `CN(CCOc1ccc(Cc2sc(O)nc2O)cc1)c1ccccn1` [Rosiglitazone] + CC(C)(Cc1ccccc1)NCC(O)c1ccc(O)c(NS(C)(=O)=O)c1 [Zinterol hydrochloride] as the molecule, how does the cell viability read?
**A.** 55.9%

**Q.** `CN(CCOc1ccc(Cc2sc(O)nc2O)cc1)c1ccccn1` [Rosiglitazone] + c1cc(-c2cnn3cc(-c4ccc(OCCN5CCCCC5)cc4)cnc23)ccn1 [Dorsomorphin] was tested. Which cell viability did it give?
**A.** 6.04%

Same assay, conditions: drug1 concentration 5 nM; drug2 concentration 5 nM; 72 h

**Q.** For `O=C(O)CC[N+](=O)[O-]` [3-nitropropionic acid] + CCn1c(=Cc2cccc[n+]2CC)sc(=C2Sc3ccccc3N2C)c1=O [MKT 077], which cell viability is on record?
**A.** > 100%

**Q.** How did the cell viability turn out when `CCn1c(=Cc2cccc[n+]2CC)sc(=C2Sc3ccccc3N2C)c1=O` [MKT 077] + CN(C)CCNC(=O)c1cccn2c(=O)c3cc4ccccc4cc3nc12 [Bmh-21] was run?
**A.** 93.5%

**Q.** For `CN(CCOc1ccc(Cc2sc(O)nc2O)cc1)c1ccccn1` [Rosiglitazone] + CC(C)(Cc1ccccc1)NCC(O)c1ccc(O)c(NS(C)(=O)=O)c1 [Zinterol hydrochloride], which cell viability is on record?
**A.** 77.8%

**Q.** `CN(CCOc1ccc(Cc2sc(O)nc2O)cc1)c1ccccn1` [Rosiglitazone] + c1cc(-c2cnn3cc(-c4ccc(OCCN5CCCCC5)cc4)cnc23)ccn1 [Dorsomorphin] was tested. Which cell viability did it give?
**A.** > 100%

Same assay, conditions: drug1 concentration 5 nM; drug2 concentration 10 nM; 72 h

**Q.** For `O=C(O)CC[N+](=O)[O-]` [3-nitropropionic acid] + CCn1c(=Cc2cccc[n+]2CC)sc(=C2Sc3ccccc3N2C)c1=O [MKT 077], which cell viability is on record?
**A.** > 100%

**Q.** `CCn1c(=Cc2cccc[n+]2CC)sc(=C2Sc3ccccc3N2C)c1=O` [MKT 077] + CN(C)CCNC(=O)c1cccn2c(=O)c3cc4ccccc4cc3nc12 [Bmh-21] was tested. Which cell viability did it give?
**A.** > 100%

**Q.** For `CN(CCOc1ccc(Cc2sc(O)nc2O)cc1)c1ccccn1` [Rosiglitazone] + CC(C)(Cc1ccccc1)NCC(O)c1ccc(O)c(NS(C)(=O)=O)c1 [Zinterol hydrochloride], which cell viability is on record?
**A.** 76%

**Q.** How did the cell viability turn out when `CN(CCOc1ccc(Cc2sc(O)nc2O)cc1)c1ccccn1` [Rosiglitazone] + c1cc(-c2cnn3cc(-c4ccc(OCCN5CCCCC5)cc4)cnc23)ccn1 [Dorsomorphin] was run?
**A.** 85.1%

Same assay, conditions: drug1 concentration 5 nM; drug2 concentration 50 nM; 72 h

**Q.** How did the cell viability turn out when `O=C(O)CC[N+](=O)[O-]` [3-nitropropionic acid] + CCn1c(=Cc2cccc[n+]2CC)sc(=C2Sc3ccccc3N2C)c1=O [MKT 077] was run?
**A.** > 100%

**Q.** With `CCn1c(=Cc2cccc[n+]2CC)sc(=C2Sc3ccccc3N2C)c1=O` [MKT 077] + CN(C)CCNC(=O)c1cccn2c(=O)c3cc4ccccc4cc3nc12 [Bmh-21] as the molecule, how does the cell viability read?
**A.** 95.8%
